Measurements: patent publication US9995734B2, “Human T cell line assay for evaluating the immunologic identity of glatiramer acetate preparations” (Mylan Inc., priority 2013, dated 2018)

Legend:
[1] = tested on: Donor 4 COP Responsive T-Cell Lines; experiment: Multiplex bead cytokine assay (FlowCytomix), Donor 4 COP responsive T-cell lines; format: cell-based, human; set-up: IFN-γ / 1L-9 / IL-22 / IL-13: unit not given here; details: for cytokine secretion: most tested Donor 4 cell lines, 20-24 hours
Protocol: The concentration of multiple cytokines was measured simultaneously using FlowCytoMix™ kits (eBioscience, San Diego Calif.). These are fluorescent bead based assays consisting of beads conjugated to anti cytokine antibodies. Beads specific for each cytokine are distinguished by size and fluorescence at 670 run. Cytokine bound to each bead is detected using a phycoerythrin conjugated antibody so that the fluorescence at 585 nm reflects the concentration of cytokine in the sample. Two kits were utilized which measured different cytokine panels. The TH1/TH2 kit measures IFN-γ, IL-1β, IL-2, IL-4, IL-5, IL-6, IL-8, IL-10, IL-12p70, TNF-α (TNF) and TNF-β (LT). The TH1/TH2/TH9/TH17/TH22 kit measures […], IL-1β, IL-2, IL-4, IL-5, IL-6, IL-9, IL-10, IL-12p70, IL-13, IL-17, IL-22, and TNF-α (TNF). Both kits were used following the manufacturer's instructions.
On Day 23 the positive wells (cell lines listed in Table 26) were transferred to a 24-well plate and restimulated with 10 μg/mL COP in the presence of mitomycin-treated autologous PBMC. IL-2 was added at Day 24. On Day 31 (after four rounds of restimulation) ten lines were restimulated with 10 μg/mL COP to confirm antigen reactivity by a cytokine secretion assay. T-cells were added at 2×10^4 cells/well in 96-well plates in X-VIVO 15 medium. Each line was separately stimulated with 10 μg/mL GMA, and 10 μg/mL COP in the presence of (2×10^5 cells/well, i.e., 1×10^6 cells/mL) mitomycin-treated autologous PBMC. Culture medium was collected after 20-24 hours for cytokine assay (FlowCytomix multiplex bead assay). The supernatants were tested in triplicate for IL-12 p70, IFN-γ, IL-2, IL-10, IL-6, IL-4, IL-5, TNF-α, and TNF-β secretion. […] Secretion of IL-2, 11-10, and IL-4 varied among the lines. All samples also secreted IL-8 (data not shown).
Culture medium from each of two Donor 4 cell lines was assayed for an extended panel of cytokines, showing production of IL-13 and IL-22 (Table 32).

GA-specific T-cell lines = format: cell-based, human; details: concentrations approaching and exceeding 10 μg/mL; data not shown
Protocol: GA-specific T-cell lines from Donors 1 and 3 were tested for proliferation in response to stimulation with peptide GL 14, poly (Glu-Lys 1:4).

[2] = T-cell line 1H9, 10 μg/mL, Day 31, medium after 20-24 hours
[3] = T-cell line 1H11, 10 μg/mL, Day 31, medium after 20-24 hours
[4] = T-cell line 205-1B4, extended cytokine multiplex assay
[5] = T-cell line 205-1B7, 10 μg/mL, Day 31, medium after 20-24 hours
[6] = T-cell line 205-1C4, 10 μg/mL, Day 31, medium after 20-24 hours
[7] = T-cell line 205-1F4, extended cytokine multiplex assay
[8] = T-cell line 205-1F5, 10 μg/mL, Day 31, medium after 20-24 hours
[9] = T-cell line 205-1G3, 10 μg/mL, Day 31, medium after 20-24 hours
[10] = T-cell line 205-1H5, 10 μg/mL, Day 31, medium after 20-24 hours
[11] = T-cell line 205-1H7, 10 μg/mL, Day 31, medium after 20-24 hours

## glatiramer acetate [GMA]
[1]; [2]
  IFN-y: 182.77 pg/mL
  IL-2: <=0 pg/mL
  IL-4: <=0 pg/mL
  IL-5: <=0 pg/mL
  IL-6: 74.92 pg/mL
  IL-10: <=0 pg/mL
  IL-12 p70: <=0 pg/mL
  TNF-α: 161.89 pg/mL
  TNF-β: <=0 pg/mL
[1]; [3]
  IFN-y: 929 pg/mL
  IL-2: 22.78 pg/mL
  IL-4: <=0 pg/mL
  IL-5: 3349.8 pg/mL
  IL-6: 28.28 pg/mL
  IL-10: 145 pg/mL
  IL-12 p70: 2.24 pg/mL
  TNF-α: 609.49 pg/mL
  TNF-β: <=0 pg/mL
[1]; [4]
  1L-9: 21
  IFN-γ: 713
  IL-2: 0
  IL-4: 117
  IL-5: 3104
  IL-6: 109
  IL-10: 25
  IL-13: 13895
  IL-22: 478
  TNF-α: 868
[1]; [5]
  IFN-y: 828.5 pg/mL
  IL-2: 10.89 pg/mL
  IL-4: 187.29 pg/mL
  IL-5: 6854.13 pg/mL
  IL-6: 187.85 pg/mL
  IL-10: 182.81 pg/mL
  IL-12 p70: 44.57 pg/mL
  TNF-α: 1305.37 pg/mL
  TNF-β: 217.5 pg/mL
[1]; [6]
  IFN-y: 1046.32 pg/mL
  IL-2: 312.13 pg/mL
  IL-4: 124.7 pg/mL
  IL-5: 5434.06 pg/mL
  IL-6: 149.35 pg/mL
  IL-10: 45.24 pg/mL
  IL-12 p70: 46.89 pg/mL
  TNF-α: 1059.01 pg/mL
  TNF-β: 81.04 pg/mL
[1]; [7]
  1L-9: 7
  IFN-γ: 1207
  IL-2: 76
  IL-4: 7
  IL-5: 1459
  IL-6: 73
  IL-10: 16
  IL-13: 4506
  IL-22: 186
  TNF-α: 323
[1]; [8]
  IFN-y: 479.26 pg/mL
  IL-2: 197.46 pg/mL
  IL-4: 328.72 pg/mL
  IL-5: 13930.97 pg/mL
  IL-6: 314.54 pg/mL
  IL-10: 231.63 pg/mL
  IL-12 p70: 67.53 pg/mL
  TNF-α: 1084.01 pg/mL
  TNF-β: 260.35 pg/mL
[1]; [9]
  IFN-y: 193.91 pg/mL
  IL-2: 5.27 pg/mL
  IL-4: <=0 pg/mL
  IL-5: 121.17 pg/mL
  IL-6: 16.67 pg/mL
  IL-10: <=0 pg/mL
  IL-12 p70: 2.37 pg/mL
  TNF-α: 68.79 pg/mL
  TNF-β: 17.66 pg/mL
[1]; [10]
  IFN-y: 902.95 pg/mL
  IL-2: <=0 pg/mL
  IL-4: 46.82 pg/mL
  IL-5: 2534.09 pg/mL
  IL-6: 52.4 pg/mL
  IL-10: <=0 pg/mL
  IL-12 p70: 8.78 pg/mL
  TNF-α: 910.83 pg/mL
  TNF-β: 79.8 pg/mL
[1]; [11]
  IFN-y: 1275.97 pg/mL
  IL-2: 176.52 pg/mL
  IL-4: 58.41 pg/mL
  IL-5: 96.95 pg/mL
  IL-6: 64.82 pg/mL
  IL-10: <=0 pg/mL
  IL-12 p70: 13.42 pg/mL
  TNF-α: 552.89 pg/mL
  TNF-β: 34.81 pg/mL
[1]; Day 31, 10 μg/mL
  cytokine secretion: secreted IFN-γ, IL-5, and TNF-α

## poly (Glu-Lys; 1:4) [GL 14]
GA-specific T-cell lines
  cell death: causes cell death

## glatiramer acetate [COP]
[1]; [2]
  IFN-y: 419.21 pg/mL
  IL-2: <=0 pg/mL
  IL-4: <=0 pg/mL
  IL-5: <=0 pg/mL
  IL-6: <=0 pg/mL
  IL-10: <=0 pg/mL
  IL-12 p70: <=0 pg/mL
  TNF-α: 159.6 pg/mL
  TNF-β: <=0 pg/mL
[1]; [3]
  IFN-y: 1016.21 pg/mL
  IL-2: 44.94 pg/mL
  IL-4: 2.09 pg/mL
  IL-5: 3665.58 pg/mL
  IL-6: 20.11 pg/mL
  IL-10: 143.84 pg/mL
  IL-12 p70: 3.68 pg/mL
  TNF-α: 754.13 pg/mL
  TNF-β: 1.55 pg/mL
[1]; [4]
  1L-9: 29
  IFN-γ: 726
  IL-2: 0
  IL-4: 174
  IL-5: 3660
  IL-6: 114
  IL-10: 32
  IL-13: 19288
  IL-22: 668
  TNF-α: 1336
[1]; [5]
  IFN-y: 935.78 pg/mL
  IL-2: 27.99 pg/mL
  IL-4: 200.19 pg/mL
  IL-5: 7199.83 pg/mL
  IL-6: 195.27 pg/mL
  IL-10: 210.01 pg/mL
  IL-12 p70: 18.39 pg/mL
  TNF-α: 1286.09 pg/mL
  TNF-β: 244.68 pg/mL
[1]; [6]
  IFN-y: 1212.03 pg/mL
  IL-2: 478.51 pg/mL
  IL-4: 199.97 pg/mL
  IL-5: 6457.14 pg/mL
  IL-6: 159.24 pg/mL
  IL-10: 50.31 pg/mL
  IL-12 p70: 51.14 pg/mL
  TNF-α: 1529.22 pg/mL
  TNF-β: 69.07 pg/mL
[1]; [7]
  1L-9: 10
  IFN-γ: 1393
  IL-2: 110
  IL-4: 10
  IL-5: 1440
  IL-6: 77
  IL-10: 0
  IL-13: 4502
  IL-22: 168
  TNF-α: 616
[1]; [8]
  IFN-y: 452.76 pg/mL
  IL-2: 205.85 pg/mL
  IL-4: 293.46 pg/mL
  IL-5: 13727.89 pg/mL
  IL-6: 318.25 pg/mL
  IL-10: 323.52 pg/mL
  IL-12 p70: 55.94 pg/mL
  TNF-α: 833.39 pg/mL
  TNF-β: 278.68 pg/mL
[1]; [9]
  IFN-y: 211.16 pg/mL
  IL-2: 10.89 pg/mL
  IL-4: <=0 pg/mL
  IL-5: 91.11 pg/mL
  IL-6: 11.79 pg/mL
  IL-10: <=0 pg/mL
  IL-12 p70: <=0 pg/mL
  TNF-α: 38.56 pg/mL
  TNF-β: <=0 pg/mL
[1]; [10]
  IFN-y: 1149.77 pg/mL
  IL-2: 15.14 pg/mL
  IL-4: 79.67 pg/mL
  IL-5: 3106.45 pg/mL
  IL-6: 57.31 pg/mL
  IL-10: 28.45 pg/mL
  IL-12 p70: 7.96 pg/mL
  TNF-α: 1260.75 pg/mL
  TNF-β: 88.62 pg/mL
[1]; [11]
  IFN-y: 1617.25 pg/mL
  IL-2: 351.63 pg/mL
  IL-4: 90.37 pg/mL
  IL-5: 101.71 pg/mL
  IL-6: 69.44 pg/mL
  IL-10: 10.06 pg/mL
  IL-12 p70: 11.11 pg/mL
  TNF-α: 1924.81 pg/mL
  TNF-β: 49.17 pg/mL
[1]; Day 31, 10 μg/mL
  cytokine secretion: secreted IFN-γ, IL-5, and TNF-α
